Key:
[1] = Assay 2. Stability in Simulated Intestinal Fluid (SIF); type: in vitro ADME; conditions: 1 μM, 37° C., SIF pH 6.7 with pancreatin
Protocol: Assay 2. Stability of acylated active agents in Simulated Intestinal Fluid (SIF). This assay was used to assess the stability of an acylated active agent in a small intestine.
Phosphate buffer was prepared by dissolving 0.42 g of sodium hydroxide pellets and 3.95 g of monobasic sodium phosphate monohydrate and 6.19 g of sodium chloride in ultrapure water (MilliQ®, Millipore Sigma, Darmstadt, Germany). The pH was adjusted to 6.7 using aq. HCl and aq. NaOH, as necessary, and the solution was diluted with ultrapure water to produce 1 L of the pH 6.7 buffer.
112 mg FaSSIF powder (Biorelevant™, London, UK) was dissolved in 50 mL of the pH 6.7 buffer. 2 to 3 mL of the resulting solution were then added to 500 mg pancreatin (Millipore Sigma, Darmstadt, Germany). The resulting mixture was agitated by finger tapping the vessel containing the mixture until milky suspension formed. At this time, the remainder of the 50 mL FaSSiF/pH 6.7 buffer solution was added. The resulting suspension was flipped upside down 10 times to produce SIF, which was used fresh.
(§1) Test compounds were dissolved in DMSO stock to 1 mM. An aliquot of the DMSO stock solution was removed and diluted in the SIF media in 15 mL falcon tubes to produce a mixture with a tested compound concentration of 1 μM. A 1 mL aliquot was immediately removed and diluted once with 1 volume of acetonitrile for T0 timepoint. The mixture was sealed and agitated at 37° C. in an incubator. Aliquots (1 mL) were removed at regular intervals and immediately quenched by the addition of 1 volume of acetonitrile. The resulting samples were analyzed by LC/MS to determine degradation rates.

[2] = Assay 1. Stability in Simulated Gastric Fluid (SGF); type: in vitro ADME; conditions: 1 μM, 37° C., SGF pH 1.6 with pepsin
Protocol: Assay 1. Stability of acylated active agents in Simulated Gastric Fluid (SGF). This assay was used to assess the stability of an acylated active agent in a stomach.
Medium was prepared by dissolving 2 g of sodium chloride in 0.6 L of ultrapure water (MilliQ®, Millipore Sigma, Darmstadt, Germany). The pH was adjusted to 1.6 with 1N hydrochloric acid, and the volume was then adjusted to 1 L with purified water.
60 mg FaSSIF powder (Biorelevant™, London, UK) were dissolved in 500 mL buffer (above). Pepsin was added (0.1 mg/mL) (Millipore Sigma, Darmstadt, Germany), and the solution was stirred. The resulting SGF media were used fresh for each experiment.
as §1, with “SGF Media” for “SIF media”, “generate” for “produce”, “a” for “a mixture with a tested”, “mixed” for “agitated”, “rates in SGF.” for “rates.”

SMILES	Assay 2 (SIF) (% @ Remaining 4 hours) [1]	Assay 1 (SGF) (% Remaining @ 1 hours) [2]
CCCC(=O)OC[C@@H](OC(=O)CCC)[C@@H](OC(=O)CCC)[C@H](OC(=O)CCC)[C@@H](OC(=O)CCC)C(=O)Oc1ccc(/C=C/c2cc(OC(=O)[C@H](OC(=O)CCC)[C@@H](OC(=O)CCC)[C@H](OC(=O)CCC)[C@@H](COC(=O)CCC)OC(=O)CCC)cc(OC(=O)[C@H](OC(=O)CCC)[C@@H](OC(=O)CCC)[C@H](OC(=O)CCC)[C@@H](COC(=O)CCC)OC(=O)CCC)c2)cc1 [Compound 19, [4-[(E)-2-[3,5-bis[[(2R,3S,4R,5R)-2,3,4,5,6-penta(butanoyloxy)hexanoyl]oxy]phenyl]vinyl]phenyl] (2R,3S,4R,5R)-2,3,4,5,6-penta(butanoyloxy)hexanoate]	B (B: 25-75% of the tested compound remaining)	B (B: 25-75% of the tested compound remaining)
C=C1CC[C@H](OC(=O)[C@H](OC(=O)CCC)[C@@H](OC(=O)CCC)[C@H](OC(=O)CCC)[C@@H](COC(=O)CCC)OC(=O)CCC)C/C1=C/C=C1\CCC[C@]2(C)[C@@H]([C@H](C)CCCC(C)C)CC[C@@H]12 [Compound 67, [(1 S,3Z)-3-[(2E)-2-[(1R,3aS,7aR)-1-[(1R)-1,5-dimethylhexyl]-7a-methyl-2,3,3a,5,6,7-hexahydro-1H-inden-4-ylidene]ethylidene]-4-methylene-cyclohexyl] (2R,3S,4R,5R)-2,3,4,5,6-penta(butanoyloxy)hexanoate]	A (A: <25% of the tested compound remaining)	B (B: 25-75% of the tested compound remaining)
CCC(=O)O[C@@H]1[C@@H](OC(=O)CC)[C@H](OC(=O)CC)CO[C@H]1O [Compound 161, (2R,3R,4S,5R)-2-hydroxy-4,5-bis(propanoyloxy)oxan-3-yl Propanoate]	A (A: <25% of the tested compound remaining)	C (C: >75% of the tested compound remaining)
CCCC(=O)Oc1ccc(N)cc1C(=O)O.Cl [Compound 31, 5-amino-2-butanoyloxy-benzoic Acid Hydrochloride]	C (C: >75% of the tested compound remaining)	C (C: >75% of the tested compound remaining)
C=C1CC[C@H](OC(=O)C2OCC[C@@H](C)O2)C/C1=C/C=C1\CCC[C@]2(C)[C@@H]([C@H](C)CCCC(C)C)CC[C@@H]12 (stereo partly drawn) [Compound 69, [(1 S,3Z)-3-[(2E)-2-[(1R,3aS,7aR)-1-[(1R)-1,5-dimethylhexyl]-7a-methyl-2,3,3a,5,6,7-hexahydro-1H-inden-4-ylidene]ethylidene]-4-methylene-cyclohexyl] (4R)-4-methyl-1,3-dioxane-2-carboxylate]	C (C: >75% of the tested compound remaining)	C (C: >75% of the tested compound remaining)
CCCC(=O)O[C@H]1[C@@H](Oc2ccc(N)cc2C(=O)O)OC[C@@H](OC(=O)CCC)[C@H]1OC(=O)CCC [Compound 41, 5-amino-2-(((2R,3R,4R,5R)-3,4,5-tris(butyryloxy)tetrahydro-2H-pyran-2-yl)oxy)benzoic Acid]	C (C: >75% of the tested compound remaining)	C (C: >75% of the tested compound remaining)
CCC(=O)O[C@H](C)CCOC(=O)Oc1ccc(/C=C/c2cc(OC(=O)OCC[C@@H](C)OC(=O)CC)cc(OC(=O)OCC[C@@H](C)OC(=O)CC)c2)cc1 [Compound 77, (2R,2′R)-((((5-((E)-4-((((R)-3-(propionyloxy)butoxy)carbonyl)oxy)styryl)-1,3-phenylene)bis(oxy))bis(carbonyl))bis(oxy))bis(butane-4,2-diyl) dipropionate]	A (A: <25% of the tested compound remaining)	B (B: 25-75% of the tested compound remaining)
CCCC(=O)O[C@H](C)CC(=O)Oc1ccc(/C=C/c2cc(OC(=O)C[C@@H](C)OC(=O)CCC)cc(OC(=O)C[C@@H](C)OC(=O)CCC)c2)cc1 [Compound 13, [4-[(E)-2-[3,5-bis[[(3R)-3-butanoyloxybutanoyl]oxy]phenyl]vinyl]phenyl] (3R)-3-butanoyloxy-butanoate]	B (B: 25-75% of the tested compound remaining)	C (C: >75% of the tested compound remaining)
CC(=O)Oc1cc(C(=O)O)cc(OC(C)=O)c1OC(C)=O [Compound 44, 3,4,5-triacetoxybenzoic Acid]	B (B: 25-75% of the tested compound remaining)	C (C: >75% of the tested compound remaining)
O=C(CCc1c[nH]c2ccccc12)O[C@@H]1[C@H](OC(=O)CCc2c[nH]c3ccccc23)C=C(C(=O)O)C[C@H]1OC(=O)CCc1c[nH]c2ccccc12 [Compound 253, (3R,4S,5R)-3,4,5-tris({[3-(1H-indol-3-yl)propanoyl]oxy})cyclohex-1-ene-1-carboxylic Acid]	B (B: 25-75% of the tested compound remaining)	B (B: 25-75% of the tested compound remaining)
CC(=O)Oc1ccc([C@@H]2CC(=O)c3c(OC(C)=O)cc(OC(C)=O)cc3O2)cc1 [Compound 21, (S)-2-(4-acetoxyphenyl)-4-oxochromane-5,7-diyl Diacetate]	A (A: <25% of the tested compound remaining)	C (C: >75% of the tested compound remaining)
O=C(CCc1c[nH]c2ccccc12)Oc1cc(C(=O)O)cc(OC(=O)CCc2c[nH]c3ccccc23)c1OC(=O)CCc1c[nH]c2ccccc12 [Compound 240, 3,4,5-tris({[3-(1H-indol-3-yl)propanoyl]oxy})benzoic Acid]	C (C: >75% of the tested compound remaining)	A (A: <25% of the tested compound remaining)
CCC(=O)O[C@H]1[C@H](OC(=O)CC)[C@H](OC(=O)Cc2c[nH]c3ccccc23)O[C@@H](C)[C@H]1OC(=O)CC [Compound 150, (2S,3S,4R,5R,6S)-2-{[2-(1H-indol-3-yl)acetyl]oxy}-6-methyl-4,5-bis(propanoyloxy)oxan-3-yl Propanoate]	A (A: <25% of the tested compound remaining)	C (C: >75% of the tested compound remaining)
CC(=O)OCC[C@@H](C)OC(=O)Oc1ccc(/C=C/c2cc(OC(=O)O[C@H](C)CCOC(C)=O)cc(OC(=O)O[C@H](C)CCOC(C)=O)c2)cc1 [Compound 24, [(3R)-3-[4-[(E)-2-[3,5-bis[[(1R)-3-acetoxy-1-methyl-propoxy]carbonyloxy]phenyl]vinyl]phenoxy]carbonyloxybutyl] acetate]	A (A: <25% of the tested compound remaining)	C (C: >75% of the tested compound remaining)
CCC(=O)OC[C@H]1OC(O)[C@H](OC(=O)CC)[C@@H](OC(=O)CC)[C@@H]1OC(=O)CC (stereo partly drawn) [Compound 142, [(2R,3R,4S,5R)-6-hydroxy-3,4,5-tris(propanoyloxy)oxan-2-yl]methyl Propanoate]	A (A: <25% of the tested compound remaining)	C (C: >75% of the tested compound remaining)

— US10953027B2, “Active agents and methods of their use for the treatment of metabolic disorders and nonalcoholic fatty liver disease” (Flagship Pioneering Innovations V, Inc., priority 2018, dated 2021)
